In ChEMBL document CHEMBL4837187, “Antimicrobial Benzyltetrahydroisoquinoline-Derived Alkaloids from the Leaves of Doryphora aromatica” (2021):

Tests used:
Format in all cases: functional
Staphylococcus aureus [1] = assay: Antimicrobial activity against methicillin-resistant Staphylococcus aureus clinical isolate 5 assessed as microbial growth inhibition incubated for 16 hrs under aerobic condition by microplate reader assay
Staphylococcus aureus [2] = assay: Antimicrobial activity against methicillin-resistant Staphylococcus aureus clinical isolate 4 assessed as microbial growth inhibition incubated for 16 hrs under aerobic condition by microplate reader assay
[3] = system: Mycobacterium tuberculosis; assay: Antimicrobial activity against Mycobacterium tuberculosis H37Rv assessed as microbial growth inhibition incubated for 16 hrs under aerobic condition by microplate reader assay
Staphylococcus aureus [4] = assay: Antimicrobial activity against methicillin-resistant Staphylococcus aureus clinical isolate 3 assessed as microbial growth inhibition incubated for 16 hrs under aerobic condition by microplate reader assay
[5] = system: Mycobacterium tuberculosis; assay: Antimicrobial activity against Mycobacterium tuberculosis MC2 6220 BSL2 assessed as microbial growth inhibition at 6.25 uM incubated for 16 hrs under aerobic condition by microplate reader assay relative to control; details: read-out: GI
Staphylococcus aureus [6] = assay: Antimicrobial activity against Staphylococcus aureus assessed as microbial growth inhibition incubated for 16 hrs under aerobic condition by microplate reader assay
Staphylococcus aureus [7] = assay: Antimicrobial activity against methicillin-resistant Staphylococcus aureus clinical isolate 2 assessed as microbial growth inhibition incubated for 16 hrs under aerobic condition by microplate reader assay
Escherichia coli = assay: Antimicrobial activity against Escherichia coli assessed as microbial growth inhibition incubated for 16 hrs under aerobic condition by microplate reader assay
[8] = system: Mycobacterium tuberculosis; assay: Antimicrobial activity against Mycobacterium tuberculosis MC2 6220 BSL2MIC assessed as microbial growth inhibition incubated for 16 hrs under aerobic condition by microplate reader assay
Staphylococcus aureus [9] = assay: Antimicrobial activity against methicillin-resistant Staphylococcus aureus clinical isolate 1 assessed as microbial growth inhibition incubated for 16 hrs under aerobic condition by microplate reader assay
[10] = system: Mycolicibacterium smegmatis; assay: Antimicrobial activity against Mycobacterium smegmatis MC2 155 ATCC […] assessed as microbial growth inhibition incubated for 16 hrs under aerobic condition by microplate reader assay

SMILES: COc1cc2c(cc1OC)[C@@H](Cc1ccc(Oc3cc(Cc4c5cc(OC)c(OC)cc5cc[n+]4C)ccc3OC)cc1)N(C)CC2
- MIC (Staphylococcus aureus [1]): 19.7 µM
- MIC (Staphylococcus aureus [2]): 39.4 µM
- MIC [3]: > 100 µM
- MIC (Staphylococcus aureus [4]): 19.7 µM
- inhibition of growth at 6.25 µM [5]: 70%
- MIC (Staphylococcus aureus [6]): 39.4 µM
- MIC (Staphylococcus aureus [7]): 39.4 µM
- MIC (Escherichia coli): 158 µM
- MIC [8]: 12.5 µM
- MIC (Staphylococcus aureus [9]): 39.4 µM
- MIC [10]: 39.4 µM

SMILES: COc1cc2cc[n+](C)c(O)c2cc1OC
- MIC (Staphylococcus aureus [6]): > 100 µM
- MIC (Escherichia coli): > 100 µM
- MIC [10]: > 100 µM

SMILES: COc1cc2cc[n+](C)c(Cc3ccc(Oc4cc(Cc5c6cc(OC)c(OC)cc6cc[n+]5C)ccc4OC)cc3)c2cc1OC
- MIC (Staphylococcus aureus [1]): 9.9 µM
- MIC (Staphylococcus aureus [2]): 9.9 µM
- MIC (Staphylococcus aureus [4]): 39.6 µM
- MIC (Staphylococcus aureus [6]): 9.9 µM
- MIC (Staphylococcus aureus [7]): 39.6 µM
- MIC (Escherichia coli): 39.6 µM
- MIC (Staphylococcus aureus [9]): 9.9 µM
- MIC [10]: 158 µM

SMILES: COc1cc2cc[n+](C)c(Cc3ccc(OC)c(Oc4ccc(C=O)cc4)c3)c2cc1OC
- MIC (Staphylococcus aureus [6]): > 100 µM
- MIC (Escherichia coli): > 100 µM
- MIC [10]: > 100 µM

SMILES: COc1cc2cc[n+](C)c(Cc3ccc(Oc4cc(Cc5c6cc(OC)c(OC)cc6cc[n+]5C)ccc4O)cc3)c2cc1OC
- MIC (Staphylococcus aureus [6]): > 100 µM
- MIC (Escherichia coli): > 100 µM
- MIC [10]: > 100 µM
